Laboratory results: patent publication EP0097039A1, “5-(E-2-halovinyl)-2'-deoxyuridine derivatives, processes for their preparation, pharmaceutical compositions containing them, and their use in treating viral infections” (BEECHAM GROUP PLC, priority 1982, dated 1983)
“And” between values parts separate entries of the source, which are not always exact repeats. Equal entries are not always repeated. Where two headings read alike, the source gives them in different places.

Key:
[1] = system: Herpes Simplex type 1 virus (HFEM strain); experiment: plaque reduction assay in Vero cells infected with Herpes Simplex type 1 virus; format: cell-based
Procedure: (§1) Vero (African Green Monkey Kidney) cells were grown to confluence in 24 well multidishes, each well being 1.6 cm in diameter. The cells were infected with Herpes Simplex type 1 virus (HFEM strain) and overlaid with 0.5 mL of 0.9% agarose (w/v) in maintenance medium in concentrations ranging from 100 to 0.03 µg/ml in half-log dilution steps, were added in 0.5 mL volume. The virus infected cultures were then incubated at 37 °C for 4 days before fixing in 4% formaldehyde solution and staining with carbolfuchsin.

[2] = cytotoxicity (minimum toxic concentration) in the infected Vero cell cultures; format: cell-based, African Green Monkey; conditions: monkey; minimum concentration of test compound which caused cytotoxicity; Vero cells, highest concentration tested 100 µg/ml; read-out: MTD
Procedure: as §1

[3] = system: Vero (African Green Monkey Kidney) cells; experiment: as above; format: cell-based; conditions: vero cells, 96 h
Procedure: as §1

[4] = Human alphaherpesvirus 1, 96 h, concentration causing 50% reduction in number of virus plaques, Vero cells, HSV-1 HFEM strain, 4 days at 37 C, read-out: PDD50 (the source's name)
[5] = Human alphaherpesvirus 1, 96 h, same PD50 expressed in µM, Vero cells, HSV-1 HFEM strain, 4 days at 37 C, read-out: PDD50 (the source's name)
[6] = Human alphaherpesvirus 1, Vero, 96 h, read-out: PDD50
[7] = concentration causing 50% reduction in number of virus plaques, Vero cells, HSV-1 HFEM strain, 4 days at 37 C
[8] = same PD50 expressed in µM, Vero cells, HSV-1 HFEM strain, 4 days at 37 C, read-out: PDD50 (the source's name)

O=C(OC[C@H]1O[C@@H](n2cc(/C=C/Br)c(=O)[nH]c2=O)C[C@@H]1OC(=O)C(Cl)c1ccccc1)C(Cl)c1ccccc1 (stereo partly drawn) [Example 22]
EC50 [1, 4]: 0.34 µg/mL | EC50 [1, 5]: 0.53 µM | MCC at 96 h [2]: > 100 µg/mL

CC(C)(Oc1ccc(Cl)cc1)C(=O)OCC(=O)OC[C@H]1O[C@@H](n2cc(/C=C/Br)c(=O)[nH]c2=O)C[C@@H]1OC(=O)COC(=O)C(C)(C)Oc1ccc(Cl)cc1 [Example 9, E-5-(2 Bromovinyl)-3',5'-bis(2-(4-chlorophenoxy)-2-methylpropionyloxy-acetyl]-2'-deoxyuridine]
EC50 [1, 4]: 1.47 µg/mL | EC50 [1, 5]: 1.75 µM | MCC at 96 h [2]: > 100 µg/mL

CCCN(CCC)S(=O)(=O)c1ccc(C(=O)OCC(=O)O[C@H]2C[C@H](n3cc(/C=C/Br)c(=O)[nH]c3=O)O[C@@H]2CO)cc1 [Example 8, E-5-(2-Bromovinyl)-3'-(4-dipropylsulphanoylbenzoyloxyacetyl)-2'-deoxyuridine]
EC50 [1, 4]: 0.22 µg/mL | EC50 [1, 5]: 0.33 µM | MCC at 96 h [2]: > 100 µg/mL

CC(C)C[C@H](O)C(=O)OC[C@H]1O[C@@H](n2cc(/C=C/Br)c(=O)[nH]c2=O)C[C@@H]1OC(=O)[C@@H](O)CC(C)C [Example 26, 5-(E-2-Bromovinyl)-2'-deoxy-3',5-di-O-(L-2-hydroxy-4-methylpentanoyl)uridine]
EC50 [1, 4]: 0.16 µg/mL | EC50 [1, 5]: 0.29 µM | MCC at 96 h [2]: > 100 µg/mL

O=C(OC[C@H]1O[C@@H](n2cc(/C=C/Br)c(=O)[nH]c2=O)C[C@@H]1OC(=O)[C@@H](O)Cc1ccccc1)[C@@H](O)Cc1ccccc1 [Example 19, E-5-(2-bromovinyl)-3', 5' -bis(L-2-hydroxy-3-phenylpropionyl)-2'-deoxyuridine]
EC50 [1, 4]: 0.43 µg/mL | EC50 [1, 5]: 0.68 µM | MCC at 96 h [2]: > 100 µg/mL

CC(Cl)C(=O)OC[C@H]1O[C@@H](n2cc(/C=C/Br)c(=O)[nH]c2=O)C[C@@H]1O (stereo partly drawn) [Example 5]
EC50 [1, 4]: 0.14 µg/mL | EC50 [1, 5]: 0.33 µM | MCC at 96 h [2]: > 100 µg/mL

COCC(=O)OC[C@H]1O[C@@H](n2cc(/C=C/Br)c(=O)[nH]c2=O)C[C@@H]1OC(=O)COC [Example 28, 5-(E-2-Bromovinyl)-2'-deoxy-3',5'-di-O-(methoxyacetyl)-uridine]
EC50 [1, 4]: 0.17 µg/mL | EC50 [1, 5]: 0.36 µM | MCC at 96 h [2]: > 100 µg/mL

CC(C)C[C@H](O[Si](C)(C)C(C)(C)C)C(=O)OC[C@H]1O[C@@H](n2cc(/C=C/Br)c(=O)[nH]c2=O)C[C@@H]1O [Example 31, 5-(E-2-Bromovinyl)-5'-O-(L-2-t-butyldimethylsilyloxy-4-methylpentanoyl)-2'-deoxyurudine]
EC50 [1, 6]: 0.53 µg/mL and 940 nM | MCC at 96 h [2]: > 100 µg/mL

CC(C)(C)[Si](C)(C)O[C@@H](Cc1ccccc1)C(=O)OC[C@H]1O[C@@H](n2cc(/C=C/Br)c(=O)[nH]c2=O)C[C@@H]1OC(=O)[C@H](Cc1ccccc1)O[Si](C)(C)C(C)(C)C [Example 18, E-5-(2-Bromovinyl)-3',5'-bis(L-2-t-butyldimethylsilyloxy-3-penylpropionyl)-2'-deoxyuridine]
EC50 [1, 6]: > 100 µg/mL | MCC at 96 h [2]: > 100 µg/mL

O=C(OC[C@H]1O[C@@H](n2cc(/C=C/Br)c(=O)[nH]c2=O)C[C@@H]1OC(=O)[C@H](O)c1ccccc1)[C@H](O)c1ccccc1 [Example 30]
EC50 [1, 4]: 0.66 µg/mL | EC50 [1, 5]: 1.1 µM | MCC at 96 h [2]: > 100 µg/mL

CC(C)C[C@H](O[Si](C)(C)C(C)(C)C)C(=O)OC[C@H]1O[C@@H](n2cc(/C=C/Br)c(=O)[nH]c2=O)C[C@@H]1OC(=O)[C@H](CC(C)C)O[Si](C)(C)C(C)(C)C [Example 32, 5-(E-2-Bromovilnyl)-3' ,5'-di-O-(L-2-t-butyldimethylsilyloxy-4-methylpentanoyl)-2'-deoxyuridirie]
EC50 [1, 6]: 4.9 µg/mL and 6.2 µM | MCC at 96 h [2]: > 100 µg/mL

CCC(Br)C(=O)OC[C@H]1O[C@@H](n2cc(/C=C/Br)c(=O)[nH]c2=O)C[C@@H]1OC(=O)C(Br)CC (stereo partly drawn) [Example 34, 5-(E-2-Bromovinyl)-3'-5'-di-O-(2-bromobutyryl) -2'-deoxyuridine]
EC50 [1, 4]: 0.2 µg/mL | EC50 [1, 5]: 0.32 µM | MCC at 96 h [2]: 100 µg/mL

O=C(CCl)OC[C@H]1O[C@@H](n2cc(/C=C/Br)c(=O)[nH]c2=O)C[C@@H]1OC(=O)CCl [Example 1, E-5-(2-Bromovinyl)-3',5'-bis (chloroacetyl)-2'-deoxyuridine]
EC50 [1, 4]: 0.14 µg/mL | EC50 [1, 5]: 0.29 µM | MCC at 96 h [2]: > 100 µg/mL

E-5-(2-Bromovinyl)-3'-trimethylsilyl-5'-(4-dipropylsulphamoylbenzoyl- oxyacetyl)-2'-deoxyuridine [Example 14]
PDD50 [1, 7]: 0.32 µg/mL | EC50 [1, 8]: 0.48 µM | MTD [3]: >100 µg/mL

O=C(OC[C@H]1O[C@@H](n2cc(/C=C/Br)c(=O)[nH]c2=O)C[C@@H]1OC(=O)[C@@H](O)c1ccccc1)[C@@H](O)c1ccccc1 [Example 24, 5-(E-2-Bromovinyl)-2'-deoxy-3', 5'-di-O-[(2S)-hydroxyphenylacetyl]uridine]
EC50 [1, 4]: 0.45 µg/mL | EC50 [1, 5]: 0.75 µM | MCC at 96 h [2]: > 100 µg/mL

CC(C)C[C@H](O)C(=O)OC[C@H]1O[C@@H](n2cc(/C=C/Br)c(=O)[nH]c2=O)C[C@@H]1O [Example 25, 5-(E-2-Bromovinyl)-2'-deoxy-5'-0-(L-2-hydroxy-4-methyl-pentanoyl)uridine]
EC50 [1, 4]: 0.15 µg/mL | EC50 [1, 5]: 0.34 µM | MCC at 96 h [2]: > 100 µg/mL

O=C(OC[C@H]1O[C@@H](n2cc(/C=C/Br)c(=O)[nH]c2=O)C[C@@H]1O)C(Cl)c1ccccc1 (stereo partly drawn) [Example 21]
EC50 [1, 4]: 0.07 µg/mL | EC50 [1, 5]: 0.14 µM | MCC at 96 h [2]: > 100 µg/mL

O=C(COc1ccccc1)OC[C@H]1O[C@@H](n2cc(/C=C/Br)c(=O)[nH]c2=O)C[C@@H]1O [Example 35, 5-(E-2-Bromovinyl)-2'-deoxy-5'-O-(phenoxyacetyl)uridine]
EC50 [1, 4]: 0.18 µg/mL | EC50 [1, 5]: 0.38 µM | MCC at 96 h [2]: > 100 µg/mL

CC(Cl)C(=O)OC[C@H]1O[C@@H](n2cc(/C=C/Br)c(=O)[nH]c2=O)C[C@@H]1OC(=O)C(C)Cl (stereo partly drawn) [Example 4]
EC50 [1, 4]: 0.14 µg/mL | EC50 [1, 5]: 0.27 µM | MCC at 96 h [2]: > 100 µg/mL

CCCN(CCC)S(=O)(=O)c1ccc(C(=O)OCC(=O)OC[C@H]2O[C@@H](n3cc(/C=C/Br)c(=O)[nH]c3=O)C[C@@H]2OC(=O)COC(=O)c2ccc(S(=O)(=O)N(CCC)CCC)cc2)cc1 [Example 6, E-5-(2-Bromovinyl)-3',5'-Bis (4-dipropylsulphamoylbenzoyloxyacetyl)-2'-deoxyuridine]
EC50 [1, 4]: 2.03 µg/mL | EC50 [1, 5]: 2.06 µM | MCC at 96 h [2]: > 100 µg/mL

O=C(OC[C@H]1O[C@@H](n2cc(/C=C/Br)c(=O)[nH]c2=O)C[C@@H]1O)[C@@H](O)c1ccccc1 [Example 23, 5-(E-2-Bromovinyl)-2'-deoxy-5'-O-[(2S)-hydroxyphenylacetyl]uridine]
EC50 [1, 4]: 0.16 µg/mL | EC50 [1, 5]: 0.34 µM | MCC at 96 h [2]: > 100 µg/mL

O=C(COc1ccccc1)OC[C@H]1O[C@@H](n2cc(/C=C/Br)c(=O)[nH]c2=O)C[C@@H]1OC(=O)COc1ccccc1 [Example 36, 5-(E-2-Bromovinyl)-2'-deoxy-3',5'-di-0-(phenoxyacetyl)-uridine]
EC50 [1, 4]: 0.57 µg/mL | EC50 [1, 5]: 0.95 µM | MCC at 96 h [2]: > 100 µg/mL

CCC(Br)C(=O)OC[C@H]1O[C@@H](n2cc(/C=C/Br)c(=O)[nH]c2=O)C[C@@H]1O (stereo partly drawn) [Example 33, 5-(E-2-Bromovin^yl)-5'-0-(2-bromobutyryl)-2'-deoxyuridine]
EC50 [1, 4]: 0.16 µg/mL | EC50 [1, 5]: 0.37 µM | MCC at 96 h [2]: > 100 µg/mL

O=C(CCl)OC[C@H]1O[C@@H](n2cc(/C=C/Br)c(=O)[nH]c2=O)C[C@@H]1O [Example 2, E-5-(2-Bromovinyl)-5'-chloroacetyl-2'-deoxyuridine]
EC50 [1, 4]: 0.12 µg/mL | EC50 [1, 5]: 0.29 µM | MCC at 96 h [2]: > 100 µg/mL

O=C(O[C@H]1C[C@H](n2cc(/C=C/Br)c(=O)[nH]c2=O)O[C@@H]1CO)C(Cl)c1ccccc1 (stereo partly drawn) [Example 20, E-5-(2-Bromovinyl)-3'-(2-chlorophenylacetyl)-2'-deoxyuridine]
EC50 [1, 4]: 0.18 µg/mL | EC50 [1, 5]: 0.37 µM | MCC at 96 h [2]: > 100 µg/mL

O=C(OC[C@H]1O[C@@H](n2cc(/C=C/Br)c(=O)[nH]c2=O)C[C@@H]1O)[C@H](O)c1ccccc1 [Example 29]
EC50 [1, 4]: 0.22 µg/mL | EC50 [1, 5]: 0.47 µM | MCC at 96 h [2]: > 100 µg/mL

COCC(=O)OC[C@H]1O[C@@H](n2cc(/C=C/Br)c(=O)[nH]c2=O)C[C@@H]1O [Example 27, 5-(E-2-Bromovinyl)-2'-deoxy-5'-O-(methoxyacetyl)uridine]
EC50 [1, 4]: 0.12 µg/mL | EC50 [1, 5]: 0.3 µM | MCC at 96 h [2]: > 100 µg/mL

CC(=O)OC(C)C(=O)OC[C@H]1O[C@@H](n2cc(/C=C/Br)c(=O)[nH]c2=O)C[C@@H]1O (stereo partly drawn) [Example 10, E-5-(2-Bromovinyl)-5'-(2-acetoxypropionyl)-2'-deoxyuridine]
EC50 [1, 4]: 0.18 µg/mL | EC50 [1, 5]: 0.4 µM | MCC at 96 h [2]: > 100 µg/mL

CCCN(CCC)S(=O)(=O)c1ccc(C(=O)OCC(=O)OC[C@H]2O[C@@H](n3cc(/C=C/Br)c(=O)[nH]c3=O)C[C@@H]2O)cc1 [Example 7, E-5-(2 Bromovinyl)-5'-(4-dipropylsulphamoylbenzoyloxyacetyl)-2'-deoxyuridine]
EC50 [1, 4]: 0.24 µg/mL | EC50 [1, 5]: 0.37 µM | MCC at 96 h [2]: > 100 µg/mL

E-5-(2-Bromovinyl)-5'-(L-2-t-butyldimethylsilyloxy-3-phenylpropionyl)-2'-deoxyuridine [Example 16]
PDD50 [1, 7]: 0.63 µg/mL | EC50 [1, 8]: 0.68 µM | MTD [3]: >100 µg/mL
